The test system of one data set is PBMC. The data set is described as follows: Flow cytometry test (size and complexity; live cells vs apoptosis-necrosis). It counts as cell-based, human. Particulars: 72 hours, same concentrations as Trypan Blue test. As to the method:
The evaluation time on this occasion was 72 hours. The toxicity was evaluated on PBMC, produced in the manner described in Example 38. […] The ODN used was PPT, in the following way: • [ODN PPT] in the complex with the CBS: 2.57 (0.88 μM) • [ODN PPT] in the complex with SF: 0.34 μM • [ODN PPT] in the complex with G4: 1 μM […] The cells were either incubated with said complexes, a mixture of equal volume which contained ODN without CBS, a mixture which contained dendrimer alone, or with a mixture which contained only RPMI+complete medium which was used as negative control. The cells and/or the supernatant were then collected to be analysed by flow cytometry, confocal microscopy or cell DNA extraction. The percentages of cells with size and complexity corresponding to cells in apoptosis-necrosis were compared with the live cells. For this, the size (FW) and the complexity (SD) was evaluated by flow cytometry. To do this, a region was drawn around the cells with FW and SD corresponding to cells in apoptosis-necrosis and another around the cells with FW and SD corresponding to live cells. The percentages of cells present in each slide were compared. The graphics produced are shown in FIG. 15, wherein the X-axis represents the size (FW) and the Y-axis the complexity (SD). […] The cloud of dark cells corresponds to cells in apoptosis necrosis. The live cells are represented in grey.

Another data set has as its system ODN PPT. Kind of data set: Stability of the dendriplexes in aqueous solution in accordance with time. It counts as physicochemical. Particulars: after 24 hours. As to the method:
Different samples of dendriplexes were prepared in aqueous solution formed between the ODN PPT and dendrimers IM8, IM16 and NN at a 2/1 charge ratio according to Example 31 and electrophoresis was performed after different times since the preparation of the samples, specifically 0 hours, 6 hours and 24 hours. During those times, the dendriplexes were maintained in conditions which imitate the physiological conditions: 37° C., in 5% CO2 atmosphere. The results are shown in FIG. 5, wherein the gel of FIG. 5a corresponds to the sample of 0 hours, that of FIG. 5b to the samples after 6 hours and that of FIG. 5c to the samples after 24 hours. In the three cases, a, b and c, the samples appear in the lanes following this order: […]

A further data set deals with erythrocytes. The data set is described as follows: Visual examination of erythrocytes (hemagglutination). The data set is classed as cell-based, human. As to the method: A visual examination was carried out to detect the presence/absence of hemagglutination and quantification of haemoglobin release (haemolysis test) by spectrophotometry. ClNH4 was excluded from the dendrimers of previous Example 38, as the result had been more toxic for lymphocytes, and the results were compared with those produced for a PAMAN type generation 4 dendrimer.
The erythrocytes were obtained after being separated from the PBMC using the same Ficoll gradient cited in the previous Example. They were diluted in PBS to be able to view them individually. The cells were resuspended in 500 μl of PBS and were seeded in a 24-well plate (300,000/well). As positive control, cells treated with 0.2% Triton X-100 were used. Negative control: PBS (blank). The erythrocytes were incubated with different dendrimer concentrations. The presence of hemagglutination, number of cells and release of haemoglobin by hour were evaluated by collecting 100 μl of supernatant and measuring absorbencies by spectrophotometry using a plate reader at a wavelength of 550 nm and 690 nm as reference.

The test system of data set [1] is peripheral blood mononuclear cells (PBMC). Kind of data set: Mitochondrial activity: MTT on PBMC. It counts as cell-based, human. Particulars: for Cell viability after incubation with dendrimers according to MTT: 48 hours, relative to untreated control. As to the method:
The toxicity of dendrimers IM8, IM16, ClNH4, NN, Phe and the commercial controls SF (Superfect) and G4 were tested. Different quantities were taken of each one of them so that the final concentrations with which the cells were incubated were 1 μM, 5 μM, 10 μM, 20 μM and 100 μM.
The blood came from adult donors or the umbilical cord of health newborns. Said blood was diluted ½ with PBS and it was centrifuged in a Ficoll gradient. After said centrifugation, the PBMC halo was recovered and two subsequent washing-centrifuging cycles were carried out. The resulting PBMC were resuspended in complete culture medium with 10% FCS, antibiotics and glutamine.
100 μl of 10% complete medium of foetal calf serum, antibiotics and glutamine were added to a volume of 60 μl of RPMI with the corresponding dendrimer tested. 160 μl were then added to the cells seeded in 340 μl, completing a final volume of 500 μl. The cells were incubated in this way for 48 hours and then the effect of the incubation with the dendrimers was evaluated by its visual examination and by the evaluation of the mitochondrial activity.
A curve of mitochondrial activity was performed of the dendrimer concentration after 48 hours. […] It is a […] test based on the selective capacity of the cells viable for reducing 3-(4,5-dimethylthiazol-2-il)-2,5-diphenyl tetrazolium bromide in insoluble formazan crystals. After 48 hours of incubation of the PBMC with different concentrations of dendrimers in a 96-well plate (100,000/well), the supernatant which contained dendrimer was removed and it was replaced by 200 μl of a culture medium without serum or red phenol (Optimem). To avoid the loss of cells in this step and subsequently of formazan, a modification had been made of the protocol, seeding the PBMC in total human plasma fibronectin (Sigma®) at a concentration of 5-10 μg/ml, so that during the 4-hour incubation they fixed to the bottom of the well. In addition to the 200 μl of Optimem, 20 μl of filtered MTT were added to achieve its sterility (Thiazolyl Blue, Sigma®) in PBS pH 7.4 at a concentration of 5 mg/ml to achieve a final concentration per well of 0.5 mg MTT/ml. After 4 hours of incubation at 37° C. with 5% CO2 atmosphere, the plate was centrifuged at 2000 rpm and the supernatant with the excess MTT that had not reacted was subsequently removed. The formazan crystals were observed under a phase contrast microscope and later dissolved with 200 μl of dimethyl sulfoxide (DMSO). The plate was stirred at 700 rpm in an Eppendorf® stirrer-heater to ensure the correct dissolution of said crystals. The concentration of formazan ([A]) was determined by spectrometry using a plate reader at a wavelength of 570 nm with a reference of 690 nm. The spectrophotometry was calibrated to zero using Optimem without cells. The relative cell viability (%) with respect to the control (untreated cells), based on mitochondrial activity, was calculated based on this formula: [A] test/[A] control×100. Each dendrimer concentration was tested in triplicate, following the guidelines of the ATCC.

Take `CN(CCO[Si](C)(C)CCC[Si](C)(CCC[Si](CCC[Si](C)(CCC[Si](C)(C)OCCN(C)CC[N+](C)(C)C)CCC[Si](C)(C)OCCN(C)CC[N+](C)(C)C)(CCC[Si](C)(CCC[Si](C)(C)OCCN(C)CC[N+](C)(C)C)CCC[Si](C)(C)OCCN(C)CC[N+](C)(C)C)CCC[Si](C)(CCC[Si](C)(C)OCCN(C)CC[N+](C)(C)C)CCC[Si](C)(C)OCCN(C)CC[N+](C)(C)C)CCC[Si](C)(C)OCCN(C)CC[N+](C)(C)C)CC[N+](C)(C)C.[I-].[I-].[I-].[I-].[I-].[I-].[I-].[I-]` [NN, 2G-[Si(O(CH2)2N(Me)(CH2)2NMe3^+I^−)]8]: the “Apoptosis-necrosis (%)” value in the data set on PBMC is 24%. For the same molecule, in the data set with PBMC, the “Live cells (%)” value is recorded as 70%. Moreover, the “ODN released from dendrimer” value in the data set with ODN PPT is given as about 100%. Further, in the data set on erythrocytes, the “biocompatibility profile, toxicity on lymphocytes and erythrocytes taken together” value was “better biocompatibility profiles”. Also, the “induction of hemagglutination / haemolysis” value in the data set on erythrocytes is “does not”. The “order of hemagglutination from greater to lesser” value in the data set on erythrocytes is “G4>Phe>IM16>IM8>NN”. The “Visual examination of erythrocytes incubated with dendrimers” value with erythrocytes (1 μM) is reported as “O.K”; in the data set on erythrocytes (5 μM), “O.K”; in the data set with erythrocytes (10 μM) it was “Ag+/−”; in the data set with erythrocytes (20 μM) it was “No cells”. Also, the “Cell viability after incubation with dendrimers according to MTT” value in data set [1] (1 μM) is given as 87%; in data set [1] (5 μM), 68%; in data set [1] (10 μM) it was 66%; in data set [1] (20 μM), 32%; in data set [1] (100 μM), 9%. The “mitochondrial viability (comparison among dendrimers)” value in data set [1] (increasing concentrations of CBS or SF) is recorded as “greater mitochondrial viability”.
